Where “and” joins values, the source holds several entries; their conditions need not be identical. Equal entries are not always repeated. Inconclusive results and toxic doses are left out.
System: BDF1 mice, B16 melanoma ip, median survival T/C
Assay: NCI In Vivo Anticancer Drug Screen. Data for tumor model B16 Melanoma (intraperitoneal) in B6D2F1 (BDF1) mice
Conditions: endpoint: median survival time, higher = longer survival
Method: The antitumor activity of compounds was measured in mice bearing transplantable tumors. Survival or tumor size were measured and the results are expressed as the measurement made in the treated group (T) divided by the measurement made in the vehicle treated control group (C). The tumor model used in this assay is B16 Melanoma (intraperitoneal) in B6D2F1 (BDF1) mice

[1] = dose: 12.5 mg/kg/injection, schedule: Q01DX009 (ip), vehicle: saline
[2] = dose: 25.0 mg/kg/injection, schedule: Q01DX009 (ip), vehicle: Klucel (hydroxypropylcellulose) (HPC)
[3] = dose: 50.0 mg/kg/injection, schedule: Q01DX009 (ip), vehicle: Klucel (hydroxypropylcellulose) (HPC)
[4] = dose: 50.0 mg/kg/injection, schedule: Q01DX009 (ip), vehicle: saline
[5] = dose: 25.0 mg/kg/injection, schedule: Q01DX009 (ip), vehicle: saline
[6] = dose: 100.0 mg/kg/injection, schedule: Q01DX009 (ip), vehicle: saline
[7] = dose: 100.0 mg/kg/injection, schedule: Q01DX009 (ip), vehicle: saline with Tween-80
[8] = dose: 200.0 mg/kg/injection, schedule: Q01DX009 (ip), vehicle: saline with Tween-80
[9] = dose: 400.0 mg/kg/injection, schedule: Q01DX009 (ip), vehicle: saline with Tween-80
[10] = dose: 100.0 mg/kg/injection, schedule: Q01DX009 (ip), vehicle: Klucel (hydroxypropylcellulose) (HPC)
[11] = dose: 200.0 mg/kg/injection, schedule: Q01DX009 (ip), vehicle: Klucel (hydroxypropylcellulose) (HPC)
[12] = dose: 12.5 mg/kg/injection, schedule: Q01DX009 (ip), vehicle: saline with Tween-80
[13] = dose: 25.0 mg/kg/injection, schedule: Q01DX009 (ip), vehicle: saline with Tween-80
[14] = dose: 50.0 mg/kg/injection, schedule: Q01DX009 (ip), vehicle: saline with Tween-80
[15] = dose: 100.0 mg/kg/injection, schedule: Q01DX009 (ip), vehicle: saline + Tween-80 + alcohol
[16] = dose: 12.5 mg/kg/injection, schedule: Q01DX009 (ip), vehicle: Klucel (hydroxypropylcellulose) (HPC)
[17] = dose: 6.25 mg/kg/injection, schedule: Q01DX009 (ip), vehicle: Klucel (hydroxypropylcellulose) (HPC)
[18] = dose: 6.25 mg/kg/injection, schedule: Q01DX009 (ip), vehicle: saline
[19] = dose: 400.0 mg/kg/injection, schedule: Q01DX009 (ip), vehicle: Klucel (hydroxypropylcellulose) (HPC)

Compound: Cc1cccc(C)c1NC(=O)c1ccccc1
- T/C [1]: 93 % of control
- T/C [2]: 89 % of control
- T/C [3]: 100 % of control
- T/C [4]: 90 % of control

Compound: CCNCCNC
- T/C [5]: 109 % of control
- T/C [4]: 98 % of control
- T/C [6]: 86 % of control

Compound: CN1C(=O)C=CC1=O
- T/C (dose: 0.5 mg/kg/injection, schedule: Q02DX009 (ip), vehicle: saline): 109 % of control
- T/C (dose: 1.0 mg/kg/injection, schedule: Q02DX009 (ip), vehicle: saline): 99 % of control
- T/C (dose: 2.0 mg/kg/injection, schedule: Q02DX009 (ip), vehicle: saline): 98 % of control
- T/C (dose: 4.0 mg/kg/injection, schedule: Q02DX009 (ip), vehicle: saline): 90 % of control

Compound: Cc1cc2ncn(C(=O)Nc3ccccc3)c2cc1C
- T/C [7]: 100 % of control
- T/C [8]: 95 % of control
- T/C [9]: 88 % of control

Compound: CC(=O)CC(=O)Nc1cccc(Cl)c1C
- T/C [3]: 103 % of control
- T/C [10]: 96 % of control
- T/C [11]: 106 % of control

Compound: COc1ccc(C(=O)c2no[n+]([O-])c2C(=O)c2ccc(OC)cc2)cc1
- T/C [12]: 95 % of control
- T/C [13]: 107 % of control
- T/C [14]: 101 % of control
- T/C [7]: 95 % of control
- T/C [8]: 87 % of control
- T/C [9]: 113 % of control

Compound: C=CCNC(=O)c1ccccc1SC(C)=O
- T/C [15]: 101 % of control
- T/C (dose: 200.0 mg/kg/injection, schedule: Q01DX009 (ip), vehicle: saline + Tween-80 + alcohol): 116 % of control
- T/C (dose: 400.0 mg/kg/injection, schedule: Q01DX009 (ip), vehicle: saline + Tween-80 + alcohol): 124 % of control

Compound: N#CCCNC(Cc1ccc(O)cc1)C(=O)O (configuration not stated)
- T/C [16]: 109 % of control
- T/C [2]: 100 % of control
- T/C [3]: 88 % of control
- T/C (dose: 56.25 mg/kg/injection, schedule: Q04DX003 (ip), vehicle: Klucel (hydroxypropylcellulose) (HPC)): 95 % of control
- T/C (dose: 75.0 mg/kg/injection, schedule: Q01DX009 (ip), vehicle: Klucel (hydroxypropylcellulose) (HPC)): 116 % of control
- T/C (dose: 112.5 mg/kg/injection, schedule: Q04DX003 (ip), vehicle: Klucel (hydroxypropylcellulose) (HPC)): 105 % of control

Compound: Cc1cccc(Nc2c(N)nc(N)nc2N)c1
- T/C [16]: 101 % of control
- T/C [2]: 104 % of control
- T/C [3]: 106 % of control

Compound: Nc1ccc(-c2ccc3ccccc3n2)cc1
- T/C [17]: 111 % of control
- T/C [16]: 104 % of control
- T/C [2]: 91 % of control

Compound: CN(C)CCC(c1ccccc1)c1cc(Cl)ccn1 (configuration not stated)
- T/C [18]: 100 % of control
- T/C [1]: 103 % of control
- T/C [5]: 97 % of control
- T/C [4]: 97 % of control
- T/C [6]: 99 % of control

Compound: CC(=O)CC(C)=O.CC(=O)CC(C)=O.[Co]
- T/C (dose: 6.25 mg/kg/injection, schedule: Q01DX009 (ip), vehicle: saline with Tween-80): 97 % of control
- T/C [12]: 102 % of control
- T/C [13]: 91 % of control

Compound: O=c1[nH]/c(=C\c2ccc3c(c2)OCO3)c(=O)[nH]/c1=C\c1ccc2c(c1)OCO2
- T/C (dose: 12.5 mg/kg/injection, schedule: Q01DX009 (ip), vehicle: carboxymethylcellulose (CMC)): 113 % of control
- T/C (dose: 25.0 mg/kg/injection, schedule: Q01DX009 (ip), vehicle: carboxymethylcellulose (CMC)): 100 % of control
- T/C (dose: 50.0 mg/kg/injection, schedule: Q01DX009 (ip), vehicle: carboxymethylcellulose (CMC)): 106 % of control
- T/C [10]: 86 % of control

Compound: CCN(C(=O)Nc1cccc(Cl)c1)c1ccccc1C
- T/C [7]: 100 % of control
- T/C [8]: 100 % of control
- T/C [9]: 94 % of control

Compound: COC(=O)/C=C/c1ccc(OC)cc1
- T/C [10]: 97 % of control
- T/C [11]: 97 % of control
- T/C (dose: 200.0 mg/kg/injection, schedule: Q04DX003 (ip), vehicle: Klucel (hydroxypropylcellulose) (HPC)): 86 % of control
- T/C [19]: 97 % of control
- T/C (dose: 400.0 mg/kg/injection, schedule: Q04DX003 (ip), vehicle: Klucel (hydroxypropylcellulose) (HPC)): 100 % of control

Compound: Cc1cc(O)c2c(c1O)C(=O)c1cccc(O)c1C2=O
- T/C (dose: 0.75 mg/kg/injection, schedule: Q01DX009 (ip), vehicle: Klucel (hydroxypropylcellulose) (HPC)): 92 % of control
- T/C (dose: 1.5 mg/kg/injection, schedule: Q01DX009 (ip), vehicle: Klucel (hydroxypropylcellulose) (HPC)): 87 % of control

Compound: Nc1c(Cl)cc(C(=O)NC2CC2)cc1Cl
- T/C [18]: 92 % of control
- T/C [1]: 102 % of control
- T/C [5]: 113 % of control
- T/C [4]: 97 % of control

Compound: CCOC(=O)C[Si](C)(C)C
- T/C [2]: 102 % of control
- T/C [3]: 108 % of control
- T/C [10]: 86 % of control
- T/C [11]: 107 % of control
- T/C [19]: 97 % of control

Compound: COC1(OC)C2(Cl)C(Cl)=C(Cl)C1(Cl)C1C(=O)C=CC(=O)C12 (configuration not stated)
- T/C (dose: 1.56 mg/kg/injection, schedule: Q01DX009 (ip), vehicle: Klucel (hydroxypropylcellulose) (HPC)): 91 % of control
- T/C (dose: 3.12 mg/kg/injection, schedule: Q01DX009 (ip), vehicle: Klucel (hydroxypropylcellulose) (HPC)): 90 % of control
- T/C [17]: 90 % of control
- T/C [16]: 90 % of control
- T/C [2]: 91 % of control
- T/C [19]: 88 % of control

Compound: Cc1ccc(S(=O)(=O)N(C)C)cc1N
- T/C [7]: 97 % of control
- T/C (dose: 100.0 mg/kg/injection, schedule: Q04DX003 (ip), vehicle: saline with Tween-80): 100 % of control
- T/C [8]: 118 % of control
- T/C (dose: 200.0 mg/kg/injection, schedule: Q04DX003 (ip), vehicle: saline with Tween-80): 102 % of control
- T/C [9]: 102 % of control
- T/C (dose: 400.0 mg/kg/injection, schedule: Q04DX003 (ip), vehicle: saline with Tween-80): 100 % of control

Compound: Cc1ccc(C(=O)CCC(=O)O)c(C)c1
- T/C [7]: 90 % of control
- T/C [8]: 93 % of control

Compound: c1cc[c]([Pb]([c]2ccccc2)([c]2ccccc2)[n]2ccc3ccccc32)cc1
- T/C (dose: 2.08 mg/kg/injection, schedule: Q01DX009 (ip), vehicle: saline with Tween-80): 102 % of control
- T/C (dose: 3.12 mg/kg/injection, schedule: Q01DX009 (ip), vehicle: saline with Tween-80): 97 % of control

Compound: c1cc2c(c(CC3CO3)c1CC1CO1)OCCOCCOCCOCCO2 (configuration not stated)
- T/C (dose: 50.0 mg/kg/injection, schedule: Q01DX009 (ip), vehicle: saline + Tween-80 + alcohol): 109 % of control
- T/C [15]: 118 % of control

Compound: OCC1OC(n2cnc3cncnc32)C(O)C1O (configuration not stated)
- T/C [1]: 115 % of control

Compound: Cc1n(Cc2ccccc2)c2c([n+]1C)C(=O)c1ccccc1C2=O
- T/C (dose: 0.13 mg/kg/injection, schedule: Q01DX009 (ip), vehicle: saline): 95 % of control
- T/C (dose: 0.25 mg/kg/injection, schedule: Q01DX009 (ip), vehicle: saline): 95 % of control
- T/C (dose: 0.5 mg/kg/injection, schedule: Q01DX009 (ip), vehicle: saline): 95 % of control
- T/C (dose: 1.0 mg/kg/injection, schedule: Q01DX009 (ip), vehicle: saline): 87 % of control

Compound: CSCCCCCCSC
- T/C [3]: 93 % of control
- T/C [10]: 105 % of control
- T/C [11]: 106 % of control

Compound: Cc1ccc(NC(=O)CCl)cc1Cl
- T/C [13]: 97 % of control
- T/C [14]: 102 % of control
- T/C [7]: 101 % of control

Compound: CC(C)(C[NH-])C[NH-].[Cl][Pt+2][Cl]
- T/C (dose: 0.5 mg/kg/injection, schedule: Q04DX003 (ip), vehicle: water): 164 % of control
- T/C (dose: 1.0 mg/kg/injection, schedule: Q04DX003 (ip), vehicle: water): 165 % of control and 183 % of control
- T/C (dose: 2.0 mg/kg/injection, schedule: Q04DX003 (ip), vehicle: water): 161 % of control and 201 % of control
- T/C (dose: 4.0 mg/kg/injection, schedule: Q04DX003 (ip), vehicle: water): 213 % of control

Compound: Cc1ccc(C(C)(C)Cl)cc1O
- T/C [12]: 117 % of control
- T/C [13]: 112 % of control
- T/C [14]: 96 % of control

Compound: O=C(Nc1ccc(Cl)cc1)Nc1ccccc1Cl
- T/C (dose: 4.5 mg/kg/injection, schedule: Q01DX009 (ip), vehicle: gum acacia): 102 % of control
- T/C (dose: 9.0 mg/kg/injection, schedule: Q01DX009 (ip), vehicle: gum acacia): 97 % of control
- T/C (dose: 18.0 mg/kg/injection, schedule: Q01DX009 (ip), vehicle: gum acacia): 90 % of control
- T/C (dose: 100.0 mg/kg/injection, schedule: Q01DX009 (ip), vehicle: gum acacia): 89 % of control

Compound: CCCCOC(=O)C1C(C(=O)OCCCC)C2(Cl)C(Cl)=C(Cl)C1(Cl)C2(Cl)Cl (configuration not stated)
- T/C [10]: 114 % of control
- T/C [11]: 116 % of control
- T/C [19]: 113 % of control
